{"source": "patent US8373006B2", "about": "“Anti-leishmanial compound and anti-leishmanial drug” (Aoyama Gakuin Educational Foundation, priority 2010, dated 2013)", "key": {"[1]": {"system": "L. major/egfp promastigotes", "test": "Analysis of in vitro anti-leishmanial activity (growth inhibition, egfp fluorescence)", "assay_type": "cell-based, Leishmania major", "conditions": "25° C., 72 h, Amphotericin B positive control defined as 100%, FIG. 9", "procedure": "The compounds represented by formulas (1) to (6), which had been isolated by the procedure described above, were subjected to an analysis of the physiological activity under the conditions that are described below. Leishmania major promastigotes were selected as the Leishmania protozoa, and a L. major/egfp promastigotes in which a fluorescent protein egfp gene had been introduced was used. The compounds mentioned above were used as samples. Thus, the growth inhibition rate was determined under the following conditions.\nL. major/egfp promastigotes were maintained at 25° C. using a 96-well plate, in 199 medium (NISSUI Pharmaceutical) containing 10% fetal bovine serum 25 mM and Hepes buffer (ICN Biomedeivals, Inc., Aurora, Ohio) and 10 μg/mL Tunicamycin (SIGMA-ALDRICH, inc., USA). Subsequently, to each well of 96-well plates containing 100 μL of L. major/egfp suspension with 1×10^6 cells/mL, 100 μL of test solution (sample dissolved in DMSO) was added, and the plates were incubated at 25° C. for 72 h. Thereafter, Fluorescence signals of L. major/egfp promastigotes were measured with a fluorescence microplate reader (Fluoroscan Ascent FL, Dainippon Pharmaceutical Co.) with excitation at 485 nm and emission at 538 nm. […]"}, "[2]": {"system": "L. major PM2", "test": "Analysis of in vivo anti-leishmanial activity in leishmaniasis mouse model", "conditions": "Balb/c mice infected with L. major PM2; 200 μg by peritoneal injection once a day for three weeks; FIG. 10-12", "procedure": "In order to evaluate the in vivo anti-leishmanial activity of the compound represented by formula (3), which had been isolated by the procedure described above, a leishmaniasis mouse model was used to investigate the therapeutic effect. Six-week old mice (Balb/c, male, 6 animals per group) were infected with 1×10^7 cells of cultured promastigotes of L. major PM2. From the day after the infection day, the compound represented by the formula (3) was administered to each specimen in an amount of 200 [μg by peritoneal injection. The administration schedule was such that the compound was continuously administered once a day for three weeks. Further, as control, the same analysis was carried out also for a treatment group to which Amphotericin B was administered, and for a treatment group to which none was administered."}}}
{"smiles": "CC(C)=CCC/C(C)=C/CC/C(C)=C/CC/C(C)=C/CC1(CC(=O)O)CC(=O)C=CC1=O", "note": "(centres unmarked) [formula (3)]", "values": [{"measurement": "growth inhibition rate", "setting": "[1]", "value": "almost equal to the growth inhibition rate of Amphotericin B"}, {"measurement": "in vivo anti-leishmanial activity (size of ulcer, antibody titer in blood, protozoan DNA in blood)", "setting": "[2]", "value": "equal to that of Amphotericin B"}]}
